Assay results published in patent US20130102009A1, “SIRTUIN ACTIVATORS AND ACTIVATION ASSAYS” (priority 2010, published 2013).
“And” between values parts separate entries of the source, which are not always exact repeats. Equal values may be shown once.

Columns and labels:
[1] = target: T1, SIRT1 (Homo sapiens, UniProt Q96EB6); assay: Mass spectroscopic kinetic assay of SIRT1-catalyzed deacetylation of 20mer peptides; type: biochemical
T1 sequence (Q96EB6 1-747): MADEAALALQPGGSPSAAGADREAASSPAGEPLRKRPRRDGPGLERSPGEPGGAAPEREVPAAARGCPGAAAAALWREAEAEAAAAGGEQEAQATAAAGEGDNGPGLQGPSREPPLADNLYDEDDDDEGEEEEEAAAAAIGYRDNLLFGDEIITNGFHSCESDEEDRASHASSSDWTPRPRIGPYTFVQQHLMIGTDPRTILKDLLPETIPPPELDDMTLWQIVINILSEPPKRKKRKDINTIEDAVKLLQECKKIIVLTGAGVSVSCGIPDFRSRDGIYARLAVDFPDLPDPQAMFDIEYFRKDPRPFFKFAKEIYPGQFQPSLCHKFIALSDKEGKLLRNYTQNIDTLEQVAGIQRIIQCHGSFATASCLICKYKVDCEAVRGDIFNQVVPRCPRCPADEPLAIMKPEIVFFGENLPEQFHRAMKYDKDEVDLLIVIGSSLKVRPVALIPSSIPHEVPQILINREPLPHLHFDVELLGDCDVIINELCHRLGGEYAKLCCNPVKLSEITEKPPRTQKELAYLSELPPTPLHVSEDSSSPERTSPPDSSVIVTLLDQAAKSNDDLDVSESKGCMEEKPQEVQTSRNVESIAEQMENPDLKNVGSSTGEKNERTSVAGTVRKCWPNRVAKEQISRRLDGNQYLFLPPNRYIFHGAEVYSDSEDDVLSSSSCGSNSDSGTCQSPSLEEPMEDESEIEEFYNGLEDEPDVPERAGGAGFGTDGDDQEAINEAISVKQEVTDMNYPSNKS
Method: Bovine glutamate dehydrogenase (GDH), α-ketoglutarate, NADH and NAD^+ were from Sigma Chemical Company. […] The nicotinamidase PNC1 was prepared as described by Denu and colleagues (Smith et al. (2009) Anal Biochem 394, 101-109). Our collection of approximately 5,000 SIRT1 activators was screened using the BioTrove mass spectrometry system, as previously described (Milne et al. (2007) Nature 450, 712-716). […] Compounds were present at 10 μM, and the assays were conducted in a pH 7.4 buffer containing 150 mM Tris, 5 mM DTT, 1% DMSO, and 0.025% BSA. To determine the interaction of STACs with SIRT1 two kinetic methods were employed. […] (2007) Nature 450, 712-716). The other, used with peptides of general structure […], used a continuous, enzyme-coupled method reported previously (Smith et al. (2009) Anal Biochem 394, 101-109), in which the SRT1 product nicotinamide is first converted into nicotinic acid and ammonia by the action of PNC1, and the ammonia then used by GDH to convert α-ketoglutarate into glutamate. This reaction occurs with oxidation of NADH to NAD^+ which is accompanied by a change in absorbance at 340 nm (Δε340=-6,200 M^-1 cm^-1). Activator titrations were plotted as relative velocity (i.e., the ratio of vx, velocity in the presence of activator X, to vo, velocity in the absence of activator) vs. [X]o, initial concentration of activator, and fit by nonlinear least-squares to the mechanism-independent expression for enzyme activation of […] the maximum relative velocity (i.e., vx/vo at infinite [X]o) and EC50 is the activator concentration at which vx/vo=(RVmax-1)/2. EC50 is a function of the kinetic mechanisms of both catalysis and activation, and the concentrations of substrates.

[2] = target: T1, SIRT1; assay: Continuous PNC1-GDH-coupled assay of SIRT1-catalyzed deacetylation of Ac-Arg-His-Lys-Lys^Ac-X with STACs; type: biochemical; conditions: for Relative Velocity, X=Ala-NH2: Ac-Arg-His-Lys-Lys^Ac-Ala-NH2; for Relative Velocity, X=NH2: Ac-Arg-His-Lys-Lys^Ac-NH2
Method: Bovine glutamate dehydrogenase (GDH), α-ketoglutarate, NADH and NAD^+ were from Sigma Chemical Company. […] The nicotinamidase PNC1 was prepared as described by Denu and colleagues (Smith et al. (2009) Anal Biochem 394, 101-109). To determine the interaction of STACs with SIRT1 two kinetic methods were employed. […] (2007) Nature 450, 712-716). The other, used with peptides of general structure […], used a continuous, enzyme-coupled method reported previously (Smith et al. (2009) Anal Biochem 394, 101-109), in which the SRT1 product nicotinamide is first converted into nicotinic acid and ammonia by the action of PNC1, and the ammonia then used by GDH to convert α-ketoglutarate into glutamate. This reaction occurs with oxidation of NADH to NAD^+ which is accompanied by a change in absorbance at 340 nm (Δε340=-6,200 M^-1 cm^-1). The kinetic experiments used to characterize activators were run on a Perkin Elmer Lambda 25 spectrophotometer equipped with a water-jacketed, eight-cell changer maintained at 25° C. In a typical kinetic experiment, all components of the reaction solution except SIRT1 were added to a 1 mL cuvette and allowed to reach thermal equilibrium. Final concentrations of the coupling system components were: 1 μM PNC1, 0.23 mM NADH, 3.4 mM α-ketoglutarate, and 20 U/mL bovine GDH. This solution also contained peptide substrate, NAD^.0., and activator, at concentrations indicated in the text. The final DMSO concentration was kept constant at 1%, and the buffer used in these experiments was 50 mM HEPES, 150 mM NaCl, pH 7.5. While the system was reaching thermal equilibrium, the absorbance was monitored to provide an accurate estimate of the background rate, which was subtracted from the reaction rate after the addition of SIRT1. Activator titrations were plotted as relative velocity (i.e., the ratio of vx, velocity in the presence of activator X, to vo, velocity in the absence of activator) vs. [X]o, initial concentration of activator, and fit by nonlinear least-squares to the mechanism-independent expression for enzyme activation of […] the maximum relative velocity (i.e., vx/vo at infinite [X]o) and EC50 is the activator concentration at which vx/vo=(RVmax-1)/2. EC50 is a function of the kinetic mechanisms of both catalysis and activation, and the concentrations of substrates.

[3] = [SRT]o = 5 μM, [peptide]o ≦ Km, [NAD+] = 70 μM
[4] = full titration, 3-5 independent experiments

| SMILES | RVmax (maximum relative velocity) ([1]; substrate TAMRA-peptide, fit to eq (1)) | EC50 ([1]; substrate TAMRA-peptide, fit to eq (1), read-out: EC50 (Kx) for activation of SIRT1-catalyzed deacetylation of TAMRA-peptide) | Effect on the deacetylation of des(biotin,TAMRA)-peptide ([1]; substrate des(biotin,TAMRA)-peptide) | RVmax for activation of the deacetylation of desTAMRA-peptide ([1]; substrate desTAMRA-peptide, fit to eq (1)) | RVmax for activation of the deacetylation of desTAMRA-peptide ([1]; substrate desTAMRA-peptide, fit to eq (1), listed as 22) | EC50 ([1]; substrate desTAMRA-peptide, fit to eq (1), read-out: EC50 for activation of the deacetylation of desTAMRA-peptide) | Ki,app for inhibition of the deacetylation of p53-20 mer ([1]; substrate p53-20 mer, RV=1/(1+([X]o/Ki,app))) | Ki ([1]; substrate p53-20 mer, RV=1/(1+([X]o/Ki,app)), read-out: Ki,app for inhibition of the deacetylation of p53-20 mer) | Relative Velocity, X=AMC ([2]; [SRT]o = 5 μM, [peptide]o ≦ Km, [NAD+] = 70 μM, Ac-Arg-His-Lys-Lys^Ac-AMC, listed as 22) | Relative Velocity, X=Ala-NH2 [2, 3] | Relative Velocity, X=NH2 [2, 3] | Relative Velocity, X=NH2 ([2]; [SRT]o = 5 μM, [peptide]o ≦ Km, [NAD+] = 70 μM, listed as 22) | Relative Velocity, X=Trp-NH2 ([2]; [SRT]o = 5 μM, [peptide]o ≦ Km, [NAD+] = 70 μM, Ac-Arg-His-Lys-Lys^Ac-Trp-NH2, listed as 22) | EC1.5 for activation of deacetylation of Ac-Arg-His-Lys-Lys^Ac-X, X=AMC [2, 4] | EC1.5 for activation of deacetylation of Ac-Arg-His-Lys-Lys^Ac-X, X=TrpNH2 [2, 4] | EC1.5 for activation of deacetylation of Ac-Arg-His-Lys-Lys^Ac-X, X=PheNH2 [2, 4] | RVmax for activation of deacetylation of Ac-Arg-His-Lys-Lys^Ac-X, X=TrpNH2 [2, 4] | EC50 ([2]; full titration, 3-5 independent experiments, read-out: EC50 for activation of deacetylation of Ac-Arg-His-Lys-Lys^Ac-X, X=TrpNH2) |
| --- | --- | --- | --- | --- | --- | --- | --- | --- | --- | --- | --- | --- | --- | --- | --- | --- | --- | --- |
| CCCCc1nc(NC2CCNCC2)cc(C(=O)Nc2ccccc2-c2nc3cc(COC4CCNCC4)cnc3s2)n1 [Compound 10, 2-butyl-6-(piperidin-4-ylamino)-N-(2-(6-((piperidin-4-yloxy)methyl)thiazolo[5,4-b]pyridin-2-yl)phenyl)pyrimidine-4-carboxamide] | 6.8±0.3 | 3.9 ± 0.5 µM | none activate | ~2.3 | 2.6 ± 0.1 | ~2 µM and 1.7 µM | inhibit | 9 µM | activates | 0.3 | 0.6 | inhibits | activates | 3.1 µM | 1.9 µM |  |  |  |
| COc1cc(C(=O)Nc2ccccc2-c2cn3c(CN4CCNCC4)csc3n2)cc(OC)c1OC [SRT1460] |  |  |  |  |  |  |  |  |  | 1.1 | 0.8 |  |  |  | 5.0 µM | 26.0 µM | 4.1±0.1 | 27 ± 8 µM |
